Test results from ChEMBL document CHEMBL2407069, “Pyrimidone-based series of glucokinase activators with alternative donor-acceptor motif” (Bioorg Med Chem Lett, 2013).

Key:
[1] = Intrinsic clearance in human liver microsomes; assay type: ADME, Microsome; details: read-out: CLH
[2] = Volume of distribution at steady state in Wistar-Han rat at 1 mg/kg, iv; assay type: ADME, organism-based; parameters: dose 1 mg/kg, route intravenous; details: in vivo, read-out: Vdss
[3] = Intrinsic clearance in rat liver microsomes; assay type: ADME, Microsome; details: read-out: CLH
[4] = Cmax in Wistar-Han rat at 5 mg/kg, po; assay type: ADME, organism-based; parameters: dose 5 mg/kg, route oral; details: in vivo
[5] = Oral bioavailability in Wistar-Han rat at 5 mg/kg; assay type: ADME, organism-based; details: in vivo
[6] = Half life in Wistar-Han rat at 1 mg/kg, iv; assay type: ADME, organism-based; parameters: dose 1 mg/kg, route intravenous; details: in vivo
[7] = Lipophilicity, log D of the compound by shake-flask method; assay type: physicochemical; details: octanol/water
[8] = AUC in Wistar-Han rat at 5 mg/kg, po; assay type: ADME, organism-based; parameters: dose 5 mg/kg, route oral; details: plasma
[9] = Clearance in Wistar-Han rat at 1 mg/kg, iv; assay type: ADME, organism-based; parameters: dose 1 mg/kg, route intravenous; details: in vivo

Compound	CLint scaled [1] [mL/min/kg]	Vd [2] [L/kg]	CLint scaled [3] [mL/min/kg]	Cmax [4] [ng/mL]	bioavailability [5] [%]	half-life [6] [h]	logD [7]	AUC [8] [ng·h/mL]	clearance [9] [mL/min/kg]
CCC(CC)Oc1cc(Oc2cnc(C(=O)N(C)C)nc2)cc(-c2nccc(=O)[nH]2)c1	22.4	5.79	91	412	32	6	1.91	580	44
CC(C)Oc1cc(Oc2cnc(C(=O)N(C)C)nc2)cc(-c2nccc(=O)[nH]2)c1	< 8		< 25.4				0.97		
CC(C)Oc1cc(Oc2cnc(C(=O)N(C)C)cn2)cc(-c2nccc(=O)[nH]2)c1	< 8		47				1.34		
C[C@@H](CO)Oc1cc(Oc2cnc(C(=O)N(C)C)nc2)cc(-c2nccc(=O)[nH]2)c1	< 8		26				-0.02		
CC(C)Oc1cc(Oc2cnc(C(=O)N(C)C)c(F)c2)cc(-c2nccc(=O)[nH]2)c1	8.3		102				1.54		
CN(C)C(=O)c1ncc(Oc2cc(OC3CCCC3)cc(-c3nccc(=O)[nH]3)c2)cn1	< 8		106				1.74		
Cc1cnc(-c2cc(Oc3cnc(C(=O)N(C)C)nc3)cc(OC(C)C)c2)[nH]c1=O	< 8		< 25.4				1.48		
COC[C@H](C)Oc1cc(Oc2cnc(C(=O)N(C)C)nc2)cc(-c2nccc(=O)[nH]2)c1	< 8		38				0.43		
COC[C@H](C)Oc1cc(Oc2cnc(C(=O)N(C)C)cn2)cc(-c2nccc(=O)[nH]2)c1	< 8		< 25.4				0.81		

Results, then the molecule that gave them:

CLint scaled [1] [mL/min/kg]	Vd [2] [L/kg]	CLint scaled [3] [mL/min/kg]	Cmax [4] [ng/mL]	bioavailability [5] [%]	half-life [6] [h]	logD [7]	AUC [8] [ng·h/mL]	clearance [9] [mL/min/kg]	Compound
< 8	0.746	< 25.4	74	6	1.8	1.42	253	19	CCS(=O)(=O)c1ccc(Oc2cc(O[C@@H](C)CO)cc(-c3nccc(=O)[nH]3)c2)cc1
< 8		96				2.43			Cc1cc(=O)[nH]c(-c2cc(Oc3ccc(S(C)(=O)=O)cc3)cc(OC(C)C)c2)n1
< 8						2.63			CNS(=O)(=O)c1ccc(Oc2cc(OC(C)C)cc(-c3nccc(=O)[nH]3)c2)cc1
< 8		171				3.11			CCc1cnc(-c2cc(Oc3ccc(S(C)(=O)=O)cc3)cc(OC(C)C)c2)[nH]c1=O
17		97				4.05			Cc1ccc(NC(=O)c2cc(Oc3ccc(S(C)(=O)=O)cc3)cc(OC(C)C)c2)nc1
12						2.26			Cc1cnc(-c2cc(Oc3ccc(S(=O)(=O)N(C)C)cc3)cc(O[C@@H](C)CO)c2)[nH]c1=O
11		61				2.27			CC(C)Oc1cc(Oc2ccc(S(C)(=O)=O)cc2)cc(-c2cncc(=O)[nH]2)c1
< 8		< 25.4				2.21			COc1cnc(-c2cc(Oc3ccc(S(C)(=O)=O)cc3)cc(OC(C)C)c2)[nH]c1=O
< 8		< 25.4				2.04			CC(C)Oc1cc(Oc2ccc(S(C)(=O)=O)cc2)cc(-c2ncc(Cl)c(=O)[nH]2)c1
< 9.8	6.41	105	150	29	1.5	2.14	703	61	CC(C)Oc1cc(Oc2ccc(S(C)(=O)=O)cc2)cc(-c2nccc(=O)[nH]2)c1
< 8		< 25.4				2.01			CNS(=O)(=O)c1ccc(Oc2cc(O[C@@H](C)CO)cc(-c3ncc(C)c(=O)[nH]3)c2)cc1
< 8		349				2.82			CC(C)Oc1cc(Oc2ccc(S(C)(=O)=O)cc2)cc(-c2cccc(=O)[nH]2)c1
< 8	0.746	189	31	2	5.3	2.68	141	13	Cc1cnc(-c2cc(Oc3ccc(S(C)(=O)=O)cc3)cc(OC(C)C)c2)[nH]c1=O
